Results taken from patent US20250270191A1, “QUINOLONE BCL6 BIFUNCTIONAL DEGRADERS” (Treeline Biosciences, Inc., priority 2022, published 2025).

Biological target: T1, Human BCL6 protein (N-terminal HiBiT tagged BCL6 in HT1080 cells) (Homo sapiens, UniProt P41182+Q96SW2)
T1 construct: Human BCL6 protein coding open reading frame; expressed in transfected cells; host or cells: HT1080 (ATCC CCL-121), stably transduced with lentivirus pLV-UBC-N-HiBiT-BCL6-PGK-puro
Assay: HiBiT based BCL6 degradation assay
Type: cell-based
Settings: HT1080 cells expressing N-terminal HiBiT tagged BCL6; 5 hours incubation; BCL6 degradation normalized with DMSO control
Source text: Human BCL6 protein coding open reading frame fused with N-terminal HiBiT coding sequence was synthesized from Integrated DNA Technologies (IDT). Next, the N-HiBiT-BCL6 sequence was cloned into pLV-UBC-PGK-Puro, a lentivirus plasmid purchased from Vectorbuilder, to generate pLV-UBC-N-HiBiT-BCL6-PGK-puro. Lentiviral particles were generated from Lenti-X™ 293T cells (Clontech) by co-transfection of pLV-UBC-N-HiBiT-BCL6-PGK-puro plasmids and lentiviral packaging plasmid mix (Cellecta). HT1080 [HT1080] (ATCC CCL-121) cells were infected with the lentivirus, and HT1080 cells stably integrated with the lentiviral vectors were established by incubation with 1 μg/mL puromycin (Thermofisher).
HT1080 cells expressing N-terminal HiBiT tagged BCL6 were dispensed into a 384-well plate pre-spotted with compounds at varying concentrations. Five thousand cells were seeded into each well in 40 μL of RPMI 1640 media plus 10% Fetal Bovine Serum (10082-147, Thermofisher). After 5 hours of incubation at 37° C. with 5% CO2, 30 μL of the NANO-GLO® HiBiT Lytic Detection System working solution (Promega) was added to each well and incubated at room temperature for 15 min. After incubation, luminescence was read on a PHERAstar FSX Plate Reader (BMG). BCL6 degradation at each indicated concentration was normalized with DMSO control. The BCL6 degradation curves were plotted using a four-parameter logistic model.

SMILES	Ymin (5 hr)
CNC(=O)COc1cc2cc(Nc3nc(NC[C@H]4CC[C@@H](CNc5cccc6c(C7CCC(=O)NC7=O)nn(C)c56)CC4)ncc3Cl)ccc2n(C)c1=O (some centres unmarked) [Compound 297a, 2-((6-((5-chloro-2-((((1s,4s)-4-(((3-(2,6-dioxopiperidin-3-yl)-1-methyl-1H-indazol-7-yl)amino)methyl)cyclohexyl)methyl)amino)pyrimidin-4-yl)amino)-1-methyl-2-oxo-1,2-dihydroquinolin-3-yl)oxy)-N-methylacetamide]	++ (50% < Ymin ≤ 70%)
CNC(=O)COc1cc2cc(Nc3nc(NC[C@H]4CC[C@@H](Nc5ccc(C6CCC(=O)NC6=O)cc5)CC4)ncc3Cl)ccc2n(C)c1=O (some centres unmarked) [Compound 277b, 2-((6-((5-chloro-2-((((1s,4s)-4-((4-(2,6-dioxopiperidin-3-yl)phenyl)amino)cyclohexyl)methyl)amino)pyrimidin-4-yl)amino)-1-methyl-2-oxo-1,2-dihydroquinolin-3-yl)oxy)-N-methylacetamide]	++ (50% < Ymin ≤ 70%)
CNC(=O)COc1cc2cc(Nc3nc(N4CCC[C@@H](COc5cccc6c(C7CCC(=O)NC7=O)nn(C)c56)C4)ncc3Cl)ccc2n(C)c1=O (stereo partly drawn) [Compound 301b, 2-((6-((5-chloro-2-((3R)-3-(((3-(2,6-dioxopiperidin-3-yl)-1-methyl-1H-indazol-7-yl)oxy)methyl)piperidin-1-yl)pyrimidin-4-yl)amino)-1-methyl-2-oxo-1,2-dihydroquinolin-3-yl)oxy)-N-methylacetamide]	++ (50% < Ymin ≤ 70%)
CNC(=O)COc1cc2cc(Nc3nc(N4CCC[C@H](CNc5cccc(C6CCC(=O)NC6=O)c5)C4)ncc3Cl)ccc2n(C)c1=O (stereo partly drawn) [Compound 275a, 2-((6-((5-chloro-2-((3R)-3-(((3-(2,6-dioxopiperidin-3-yl)phenyl)amino)methyl)piperidin-1-yl)pyrimidin-4-yl)amino)-1-methyl-2-oxo-1,2-dihydroquinolin-3-yl)oxy)-N-methylacetamide]	+ (Ymin > 70%)

Next, values leading:

Ymin (5 hr)	SMILES
++ (50% < Ymin ≤ 70%)	CNC(=O)COc1cc2cc(Nc3nc(N4CCCC5(CCCN(c6ccc7c(C8CCC(=O)NC8=O)nn(C)c7c6)C5)C4)ncc3Cl)ccc2n(C)c1=O (centres unmarked) [Compound 335, 2-((6-((5-chloro-2-(8-(3-(2,6-dioxopiperidin-3-yl)-1-methyl-1H-indazol-6-yl)-2,8-diazaspiro[5.5]undecan-2-yl)pyrimidin-4-yl)amino)-1-methyl-2-oxo-1,2-dihydroquinolin-3-yl)oxy)-N-methylacetamide]
++++ (Ymin ≤ 25%)	CNC(=O)COc1cc2cc(Nc3nc(N4CCC(C(=O)N5CCN(c6ccc7c(C8CCC(=O)NC8=O)nn(C)c7c6)CC5)CC4)ncc3Cl)ccc2n(C)c1=O (centres unmarked) [Compound 328, 2-((6-((5-chloro-2-(4-(4-(3-(2,6-dioxopiperidin-3-yl)-1-methyl-1H-indazol-6-yl)piperazine-1-carbonyl)piperidin-1-yl)pyrimidin-4-yl)amino)-1-methyl-2-oxo-1,2-dihydroquinolin-3-yl)oxy)-N-methylacetamide]
+++ (25% < Ymin ≤ 50%)	CNC(=O)COc1cc2cc(Nc3nc(N4CCN(C5CN(c6ccc7c(C8CCC(=O)NC8=O)nn(C)c7c6)C5)CC4)ncc3Cl)ccc2n(C)c1=O (centres unmarked) [Compound 282, 2-((6-((5-chloro-2-(4-(1-(3-(2,6-dioxopiperidin-3-yl)-1-methyl-1H-indazol-6-yl)azetidin-3-yl)piperazin-1-yl)pyrimidin-4-yl)amino)-1-methyl-2-oxo-1,2-dihydroquinolin-3-yl)oxy)-N-methylacetamide]
+++ (25% < Ymin ≤ 50%)	CNC(=O)COc1cc2cc(Nc3nc(N4CCN(CC5CCN(c6ccc7c(C8CCC(=O)NC8=O)nn(C)c7c6)CC5)[C@@H](C)C4)ncc3Cl)ccc2n(C)c1=O (stereo partly drawn) [Compound 309b, 2-((6-((5-chloro-2-((3S)-4-((1-(3-(2,6-dioxopiperidin-3-yl)-1-methyl-1H-indazol-6-yl)piperidin-4-yl)methyl)-3-methylpiperazin-1-yl)pyrimidin-4-yl)amino)-1-methyl-2-oxo-1,2-dihydroquinolin-3-yl)oxy)-N-methylacetamide]
